Measured values taken from ChEMBL document CHEMBL4043288, “( S)-2-Amino-3-(5-methyl-3-hydroxyisoxazol-4-yl)propanoic Acid (AMPA) and Kainate Receptor Ligands: Further Exploration of Bioisosteric Replacements and Structural and Biological Investigation” (J Med Chem, 2018).
The source made the active and inactive calls. No cut-off for these calls is given here.

Tests used:
[1] = molecular target: Glutamate receptor ionotropic, kainate 2 (Rattus norvegicus, UniProt P42260); test: Displacement of [3H]SYM2081 from recombinant homomeric rat GluK2 receptor expressed in baculovirus infected Sf9 insect cell membranes
[2] = molecular target: Glutamate receptor ionotropic, kainate 3 (Rattus norvegicus, UniProt P42264); test: Displacement of [3H]SYM2081 from recombinant homomeric rat GluK3 receptor expressed in baculovirus infected Sf9 insect cell membranes
Glutamate receptor 2 = Glutamate receptor 2 (Rattus norvegicus, UniProt P19491); test: Displacement of [3H]AMPA from recombinant homomeric rat GluA2 receptor expressed in baculovirus infected Sf9 insect cell membranes
[3] = molecular target: Glutamate receptor ionotropic, kainate 1 (Rattus norvegicus, UniProt P22756); test: Displacement of [3H]SYM2081 from recombinant homomeric rat GluK1 receptor expressed in baculovirus infected Sf9 insect cell membranes
Rattus norvegicus [4] = organism: Rattus norvegicus; test: Selectivity ratio of Ki for recombinant homomeric rat GluK3 expressed in Sf9 insect cells to Ki for recombinant homomeric rat GluK1 expressed in Sf9 insect cells
[5] = Permeability of compound in rat brain at 100 uM perfused for 60 secs by LC-MS analysis; assay type: ADME, tissue-based; settings: not told, other: brain perfusion, read-out: permeability
Rattus norvegicus [6] = test: Analgesic activity in Wistar Han rat assessed as inhibition of formalin-induced pain by measuring locomotor activities at 2 mg/kg, ip administered 30 mins prior to formalin injection measured after 30 mins by formalin test; assay type: functional, organism-based
Rattus norvegicus [7] = test: Analgesic activity in Wistar Han rat assessed as inhibition of formalin-induced pain by measuring flexing duration in late phase at 2 mg/kg, ip administered 30 mins prior to formalin injection measured for 15 to 60 mins after formalin injection
Rattus norvegicus [8] = test: Analgesic activity in Wistar Han rat assessed as inhibition of formalin-induced pain by measuring paw-jerk frequency in early phase at 2 mg/kg, ip administered 30 mins prior to formalin injection measured for 15 to 60 mins after formalin injection; assay type: functional, organism-based
Rattus norvegicus [9] = test: Analgesic activity in Wistar Han rat assessed as inhibition of formalin-induced pain by measuring flexing duration in early phase at 2 mg/kg, ip administered 30 mins prior to formalin injection measured for first 15 mins after formalin injection; assay type: functional, organism-based
Rattus norvegicus [10] = test: Analgesic activity in Wistar Han rat assessed as inhibition of formalin-induced pain by measuring time spent licking injected paw in early phase at 2 mg/kg, ip administered 30 mins prior to formalin injection measured for first 15 mins after formalin injection; assay type: functional, organism-based
Rattus norvegicus [11] = test: Analgesic activity in Wistar Han rat assessed as inhibition of formalin-induced pain by measuring paw-jerk frequency in early phase at 2 mg/kg, ip administered 30 mins prior to formalin injection measured for first 15 mins after formalin injection; assay type: functional, organism-based
Rattus norvegicus [12] = test: Analgesic activity in Wistar Han rat assessed as inhibition of formalin-induced pain by measuring time spent licking injected paw in late phase at 2 mg/kg, ip administered 30 mins prior to formalin injection measured for 15 to 60 mins after formalin injection
Rattus norvegicus [13] = test: Analgesic activity in Wistar Han rat assessed as inhibition of formalin-induced pain by measuring locomotor activities at 2 mg/kg, ip administered 30 mins prior to formalin injection measured after 45 mins by formalin test; assay type: functional, organism-based
Rattus norvegicus [14] = organism: Rattus norvegicus; test: Selectivity ratio of Ki for recombinant homomeric rat GluK3 expressed in Sf9 insect cells to Ki for recombinant homomeric rat GluA2 expressed in Sf9 insect cells

Chain of Glutamate receptor ionotropic, kainate 2 (P42260 whole entry): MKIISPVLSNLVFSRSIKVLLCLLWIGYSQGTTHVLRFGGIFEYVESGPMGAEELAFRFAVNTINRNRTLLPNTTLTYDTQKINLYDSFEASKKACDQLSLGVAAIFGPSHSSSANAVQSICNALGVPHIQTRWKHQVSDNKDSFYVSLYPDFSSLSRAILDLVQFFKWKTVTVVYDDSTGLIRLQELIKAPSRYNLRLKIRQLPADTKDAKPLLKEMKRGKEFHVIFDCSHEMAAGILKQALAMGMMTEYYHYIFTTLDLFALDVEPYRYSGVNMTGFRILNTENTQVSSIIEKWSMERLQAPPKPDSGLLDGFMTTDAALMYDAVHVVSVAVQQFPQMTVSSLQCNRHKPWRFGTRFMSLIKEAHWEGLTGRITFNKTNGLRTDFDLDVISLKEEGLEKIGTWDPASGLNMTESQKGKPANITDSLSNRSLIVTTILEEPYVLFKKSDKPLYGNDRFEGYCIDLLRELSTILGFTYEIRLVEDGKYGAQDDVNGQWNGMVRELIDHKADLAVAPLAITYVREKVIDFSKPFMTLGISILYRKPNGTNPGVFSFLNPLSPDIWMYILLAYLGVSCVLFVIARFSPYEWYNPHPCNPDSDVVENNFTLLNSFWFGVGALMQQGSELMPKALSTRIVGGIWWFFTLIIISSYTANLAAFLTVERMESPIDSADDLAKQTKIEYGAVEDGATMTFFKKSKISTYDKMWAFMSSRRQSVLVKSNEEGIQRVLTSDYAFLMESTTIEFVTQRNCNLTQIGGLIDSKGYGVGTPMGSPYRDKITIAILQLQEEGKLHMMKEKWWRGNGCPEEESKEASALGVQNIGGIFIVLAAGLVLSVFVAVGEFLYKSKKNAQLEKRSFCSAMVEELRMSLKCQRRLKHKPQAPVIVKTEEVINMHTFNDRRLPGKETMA
Chain of Glutamate receptor 2 (P19491 whole entry): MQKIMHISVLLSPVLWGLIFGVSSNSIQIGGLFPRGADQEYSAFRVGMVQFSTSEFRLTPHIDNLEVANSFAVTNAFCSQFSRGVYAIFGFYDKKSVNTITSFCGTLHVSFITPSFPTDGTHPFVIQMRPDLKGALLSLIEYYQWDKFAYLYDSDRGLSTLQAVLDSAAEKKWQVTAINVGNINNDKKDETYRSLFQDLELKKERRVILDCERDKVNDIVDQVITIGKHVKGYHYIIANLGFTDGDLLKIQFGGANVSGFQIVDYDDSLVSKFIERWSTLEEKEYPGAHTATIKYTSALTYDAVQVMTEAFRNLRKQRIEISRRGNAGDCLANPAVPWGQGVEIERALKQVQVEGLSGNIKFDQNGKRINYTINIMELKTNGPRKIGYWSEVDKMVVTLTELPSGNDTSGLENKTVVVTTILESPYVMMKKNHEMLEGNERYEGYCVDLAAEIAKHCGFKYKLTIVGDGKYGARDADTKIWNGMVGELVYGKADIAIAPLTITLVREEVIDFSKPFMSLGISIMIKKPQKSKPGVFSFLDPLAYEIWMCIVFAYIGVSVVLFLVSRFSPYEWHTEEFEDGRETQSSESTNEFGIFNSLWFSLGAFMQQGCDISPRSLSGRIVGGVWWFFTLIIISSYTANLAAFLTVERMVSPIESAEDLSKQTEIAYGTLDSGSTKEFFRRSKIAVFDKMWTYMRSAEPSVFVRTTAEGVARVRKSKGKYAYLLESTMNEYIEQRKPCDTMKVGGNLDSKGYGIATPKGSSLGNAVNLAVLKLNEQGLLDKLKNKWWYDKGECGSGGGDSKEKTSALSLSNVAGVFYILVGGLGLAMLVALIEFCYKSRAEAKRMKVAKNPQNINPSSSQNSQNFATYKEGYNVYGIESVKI
Chain of Glutamate receptor ionotropic, kainate 3 (P42264 whole entry): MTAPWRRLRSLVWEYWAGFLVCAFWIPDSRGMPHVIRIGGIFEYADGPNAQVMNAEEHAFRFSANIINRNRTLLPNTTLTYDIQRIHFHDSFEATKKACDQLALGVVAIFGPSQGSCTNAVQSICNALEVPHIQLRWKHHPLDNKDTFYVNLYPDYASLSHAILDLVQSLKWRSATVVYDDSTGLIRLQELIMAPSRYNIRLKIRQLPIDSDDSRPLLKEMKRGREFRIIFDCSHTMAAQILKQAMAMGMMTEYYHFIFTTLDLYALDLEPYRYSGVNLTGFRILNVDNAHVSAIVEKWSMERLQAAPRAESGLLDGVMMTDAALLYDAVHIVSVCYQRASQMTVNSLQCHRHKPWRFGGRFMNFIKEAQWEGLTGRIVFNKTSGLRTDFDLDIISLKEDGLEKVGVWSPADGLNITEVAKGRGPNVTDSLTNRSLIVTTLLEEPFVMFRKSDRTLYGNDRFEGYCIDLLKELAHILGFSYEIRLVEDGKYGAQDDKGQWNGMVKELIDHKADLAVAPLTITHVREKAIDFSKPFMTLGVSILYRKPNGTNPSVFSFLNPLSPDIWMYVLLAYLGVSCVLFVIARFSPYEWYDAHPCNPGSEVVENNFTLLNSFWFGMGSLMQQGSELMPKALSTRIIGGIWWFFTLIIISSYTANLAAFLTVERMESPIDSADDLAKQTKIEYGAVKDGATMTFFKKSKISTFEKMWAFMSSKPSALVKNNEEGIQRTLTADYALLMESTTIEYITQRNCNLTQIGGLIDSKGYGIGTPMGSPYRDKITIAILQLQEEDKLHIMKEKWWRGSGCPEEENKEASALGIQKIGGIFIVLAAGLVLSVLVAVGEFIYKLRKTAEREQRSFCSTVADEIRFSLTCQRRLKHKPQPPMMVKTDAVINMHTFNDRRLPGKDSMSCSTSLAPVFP
Chain of Glutamate receptor ionotropic, kainate 1 (P22756 whole entry): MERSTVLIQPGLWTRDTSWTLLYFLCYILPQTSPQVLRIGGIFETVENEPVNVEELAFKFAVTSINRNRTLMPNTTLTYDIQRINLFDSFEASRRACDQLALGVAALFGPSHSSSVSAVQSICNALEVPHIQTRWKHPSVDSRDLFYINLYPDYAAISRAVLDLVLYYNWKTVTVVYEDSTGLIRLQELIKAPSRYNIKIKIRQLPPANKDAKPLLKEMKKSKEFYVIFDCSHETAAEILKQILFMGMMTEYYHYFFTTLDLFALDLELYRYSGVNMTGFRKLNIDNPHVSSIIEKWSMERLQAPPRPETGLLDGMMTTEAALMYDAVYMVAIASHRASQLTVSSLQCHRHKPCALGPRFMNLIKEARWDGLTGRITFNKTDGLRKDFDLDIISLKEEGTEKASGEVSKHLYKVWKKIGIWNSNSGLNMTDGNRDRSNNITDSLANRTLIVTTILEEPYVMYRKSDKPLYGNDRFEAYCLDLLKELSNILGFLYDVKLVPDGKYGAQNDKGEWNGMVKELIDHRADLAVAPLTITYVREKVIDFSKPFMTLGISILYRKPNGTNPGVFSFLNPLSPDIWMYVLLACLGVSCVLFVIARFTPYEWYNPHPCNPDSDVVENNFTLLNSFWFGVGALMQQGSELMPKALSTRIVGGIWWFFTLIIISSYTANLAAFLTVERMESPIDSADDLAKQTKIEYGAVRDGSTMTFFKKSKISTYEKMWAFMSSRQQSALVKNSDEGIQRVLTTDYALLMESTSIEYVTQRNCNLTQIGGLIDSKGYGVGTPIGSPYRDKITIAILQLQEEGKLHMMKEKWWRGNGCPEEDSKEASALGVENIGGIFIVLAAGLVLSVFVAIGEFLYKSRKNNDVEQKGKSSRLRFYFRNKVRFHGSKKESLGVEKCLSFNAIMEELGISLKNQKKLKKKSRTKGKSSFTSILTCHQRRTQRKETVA

Work on N[C@@H](Cn1c(=O)n(Cc2nnc(O)o2)c(=O)c2cscc21)C(=O)O yielded a Ki [1] greater than 1000 µM, a Ki [2] of 100 µM and a Ki (Glutamate receptor 2) greater than 100 µM. For the same compound, the Ki [3] was 36 µM and the Ratio Ki (Rattus norvegicus [4]) was greater than 3.

Compound N[C@@H](Cn1c2c(c(=O)[nH]c1=O)COC2)C(=O)O has a Ki [1] greater than 1000 µM, a Ki [2] of 111 µM and a Ki [3] of 0.586 µM.

In the case of N[C@@H](Cn1c2c(c(=O)[nH]c1=O)CCC2)C(=O)O, the Ki [1] is reported as greater than 1000 µM.

For N[C@@H](Cn1c(=O)n(Cc2ccsc2C(=O)O)c(=O)c2cscc21)C(=O)O, the Papp at 1 min, 100 µM [5] was 0.59 ×10⁻⁶ cm/s, the Activity (Rattus norvegicus [6]) was “Active” and the Activity (Rattus norvegicus [7]) was “Active”. The Activity (Rattus norvegicus [8]) was “Active”, the Activity (Rattus norvegicus [9]) was “Active” and the Activity (Rattus norvegicus [10]) was “Active”. For the same compound, the Activity (Rattus norvegicus [11]) was “Active” and the Activity (Rattus norvegicus [12]) was “Active”.

In the case of N[C@@H](Cn1c(=O)[nH]c(=O)c2cscc21)C(=O)O, the Activity (Rattus norvegicus [6]) is reported as “Active”, the Activity (Rattus norvegicus [7]) is reported as “Active” and the Activity (Rattus norvegicus [8]) is reported as “Active”. For the same compound, the Activity (Rattus norvegicus [9]) was “Active”, the Activity (Rattus norvegicus [10]) was “Active” and the Activity (Rattus norvegicus [11]) was “Active”. The Activity (Rattus norvegicus [12]) was “Active” and the Activity (Rattus norvegicus [13]) was “Active”.

Compound N[C@@H](Cn1c2c(c(=O)[nH]c1=O)CNC2)C(=O)O has a Ki [1] greater than 1000 µM, a Ratio Ki (Rattus norvegicus [14]) of 8 and a Ki [2] of 18.1 µM. The Ki (Glutamate receptor 2) was 2.37 µM, the Ki [3] was 0.869 µM and the Ratio Ki (Rattus norvegicus [4]) was 21.

With CN1Cc2c(n(C[C@H](N)C(=O)O)c(=O)[nH]c2=O)C1 the Ki [1] was greater than 1000 µM, the Ratio Ki (Rattus norvegicus [14]) was 1 and the Ki [2] was 2.15 µM. For the same compound, the Ki (Glutamate receptor 2) was 1.99 µM, the Ki [3] was 0.356 µM and the Ratio Ki (Rattus norvegicus [4]) was 6.
